According to ChEMBL document CHEMBL5212743, “Selectivity Literature for EUbOPEN Chemogenomics Library wave 3” (2023):

Experiments:
[1] = target: Epithelial discoidin domain-containing receptor 1 (Homo sapiens, UniProt Q08345); details: at 1 µM
[2] = target: Phosphorylase b kinase regulatory subunit alpha, liver isoform (Homo sapiens) (UniProt P46019); experiment: Selectivity interaction (Kinase panel (University of Dundee)) EUB0000169b PHKA2; details: at 10 µM
[3] = target: T1, Serine/threonine-protein kinase Sgk1 (Homo sapiens) (UniProt O00141); experiment: Selectivity interaction (Kinase panel (University of Dundee)) EUB0000169b SGK1; details: at 10 µM
T1 sequence (whole entry): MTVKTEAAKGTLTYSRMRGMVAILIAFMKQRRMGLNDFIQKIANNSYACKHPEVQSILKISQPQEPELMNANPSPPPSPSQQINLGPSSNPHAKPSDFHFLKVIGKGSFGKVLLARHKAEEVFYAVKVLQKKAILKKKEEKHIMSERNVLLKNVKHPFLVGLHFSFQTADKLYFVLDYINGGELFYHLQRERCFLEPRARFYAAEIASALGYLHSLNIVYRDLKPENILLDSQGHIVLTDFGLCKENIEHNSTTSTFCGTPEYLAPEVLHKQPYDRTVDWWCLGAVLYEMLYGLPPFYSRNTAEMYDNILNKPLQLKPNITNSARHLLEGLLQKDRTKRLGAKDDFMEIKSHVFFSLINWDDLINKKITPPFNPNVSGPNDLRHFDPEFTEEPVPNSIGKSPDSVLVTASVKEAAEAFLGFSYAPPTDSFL

[4] = target: BMP-2-inducible protein kinase (Homo sapiens) (UniProt Q9NSY1); experiment: Selectivity interaction (KinomeScan (DiscoverX)) EUB0000702a BMP2K; details: at 1 µM
[5] = target: Ribosomal protein S6 kinase alpha-6 (Homo sapiens) (UniProt Q9UK32); experiment: Selectivity interaction (KinomeScan (DiscoverX)) EUB0000702a RPS6KA6; details: at 1 µM
[6] = target: T2, Cyclin-G-associated kinase (Homo sapiens) (UniProt O14976); experiment: Selectivity interaction (KinomeScan (DiscoverX)) EUB0000698a GAK; details: at 10 µM
T2 sequence (whole entry): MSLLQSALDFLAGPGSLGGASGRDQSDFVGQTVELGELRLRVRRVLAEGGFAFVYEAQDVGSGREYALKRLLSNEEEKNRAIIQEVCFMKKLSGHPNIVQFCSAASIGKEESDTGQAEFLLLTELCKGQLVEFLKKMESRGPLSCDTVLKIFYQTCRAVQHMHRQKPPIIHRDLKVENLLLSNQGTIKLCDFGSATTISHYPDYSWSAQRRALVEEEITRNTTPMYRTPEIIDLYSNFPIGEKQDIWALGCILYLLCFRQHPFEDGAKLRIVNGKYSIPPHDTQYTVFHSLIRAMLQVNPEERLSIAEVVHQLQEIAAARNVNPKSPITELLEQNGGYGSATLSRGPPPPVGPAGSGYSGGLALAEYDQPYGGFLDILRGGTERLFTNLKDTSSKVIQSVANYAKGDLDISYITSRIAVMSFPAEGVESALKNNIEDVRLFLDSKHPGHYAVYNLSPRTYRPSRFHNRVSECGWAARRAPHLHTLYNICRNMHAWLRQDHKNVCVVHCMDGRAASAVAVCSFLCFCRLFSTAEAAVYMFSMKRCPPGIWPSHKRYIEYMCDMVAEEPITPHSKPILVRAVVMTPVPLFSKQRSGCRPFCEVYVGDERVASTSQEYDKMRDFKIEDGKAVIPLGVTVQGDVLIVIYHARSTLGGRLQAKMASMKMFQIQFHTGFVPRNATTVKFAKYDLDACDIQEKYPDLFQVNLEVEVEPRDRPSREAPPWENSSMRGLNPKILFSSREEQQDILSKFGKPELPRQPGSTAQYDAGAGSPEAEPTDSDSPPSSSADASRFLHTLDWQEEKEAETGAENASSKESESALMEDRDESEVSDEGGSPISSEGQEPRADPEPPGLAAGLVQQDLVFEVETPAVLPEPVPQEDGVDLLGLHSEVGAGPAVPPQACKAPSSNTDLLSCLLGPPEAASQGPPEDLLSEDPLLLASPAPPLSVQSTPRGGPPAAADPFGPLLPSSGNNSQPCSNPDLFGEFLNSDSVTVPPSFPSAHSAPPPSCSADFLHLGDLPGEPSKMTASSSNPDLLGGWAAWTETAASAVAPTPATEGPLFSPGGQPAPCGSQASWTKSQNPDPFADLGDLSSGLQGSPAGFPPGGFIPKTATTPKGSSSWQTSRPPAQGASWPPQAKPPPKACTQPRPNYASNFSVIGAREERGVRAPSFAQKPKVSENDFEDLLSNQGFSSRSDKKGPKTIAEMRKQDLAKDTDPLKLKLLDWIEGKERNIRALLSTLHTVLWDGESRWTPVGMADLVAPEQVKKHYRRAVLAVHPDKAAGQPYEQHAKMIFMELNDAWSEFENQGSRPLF

Epithelial discoidin domain-containing receptor 1, sequence (Q08345 whole entry, the tested form may be a part, canonical isoform): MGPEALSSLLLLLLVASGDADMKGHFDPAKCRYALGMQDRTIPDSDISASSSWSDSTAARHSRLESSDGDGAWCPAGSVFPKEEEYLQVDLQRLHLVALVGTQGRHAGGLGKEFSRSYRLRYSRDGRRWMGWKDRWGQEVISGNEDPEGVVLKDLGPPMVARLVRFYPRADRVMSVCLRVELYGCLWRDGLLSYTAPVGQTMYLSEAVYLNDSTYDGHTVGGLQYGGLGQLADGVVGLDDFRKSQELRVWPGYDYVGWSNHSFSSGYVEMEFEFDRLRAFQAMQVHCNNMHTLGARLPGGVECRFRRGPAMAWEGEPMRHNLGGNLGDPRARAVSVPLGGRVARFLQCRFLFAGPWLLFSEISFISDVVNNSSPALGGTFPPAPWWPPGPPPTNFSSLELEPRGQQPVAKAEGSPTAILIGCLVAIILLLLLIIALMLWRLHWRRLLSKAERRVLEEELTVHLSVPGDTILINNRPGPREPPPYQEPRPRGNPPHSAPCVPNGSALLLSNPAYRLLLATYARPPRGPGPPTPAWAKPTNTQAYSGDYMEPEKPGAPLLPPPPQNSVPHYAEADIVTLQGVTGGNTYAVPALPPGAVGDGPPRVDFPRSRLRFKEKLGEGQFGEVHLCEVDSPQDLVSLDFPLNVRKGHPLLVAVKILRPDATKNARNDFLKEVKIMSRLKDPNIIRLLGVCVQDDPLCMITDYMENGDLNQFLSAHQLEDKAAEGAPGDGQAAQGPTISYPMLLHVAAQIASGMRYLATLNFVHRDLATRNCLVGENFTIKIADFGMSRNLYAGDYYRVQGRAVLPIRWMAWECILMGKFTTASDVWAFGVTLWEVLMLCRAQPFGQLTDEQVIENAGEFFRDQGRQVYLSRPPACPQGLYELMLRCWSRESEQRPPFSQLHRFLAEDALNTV
Phosphorylase b kinase regulatory subunit alpha, liver isoform (Homo sapiens), sequence (P46019 whole entry, canonical isoform): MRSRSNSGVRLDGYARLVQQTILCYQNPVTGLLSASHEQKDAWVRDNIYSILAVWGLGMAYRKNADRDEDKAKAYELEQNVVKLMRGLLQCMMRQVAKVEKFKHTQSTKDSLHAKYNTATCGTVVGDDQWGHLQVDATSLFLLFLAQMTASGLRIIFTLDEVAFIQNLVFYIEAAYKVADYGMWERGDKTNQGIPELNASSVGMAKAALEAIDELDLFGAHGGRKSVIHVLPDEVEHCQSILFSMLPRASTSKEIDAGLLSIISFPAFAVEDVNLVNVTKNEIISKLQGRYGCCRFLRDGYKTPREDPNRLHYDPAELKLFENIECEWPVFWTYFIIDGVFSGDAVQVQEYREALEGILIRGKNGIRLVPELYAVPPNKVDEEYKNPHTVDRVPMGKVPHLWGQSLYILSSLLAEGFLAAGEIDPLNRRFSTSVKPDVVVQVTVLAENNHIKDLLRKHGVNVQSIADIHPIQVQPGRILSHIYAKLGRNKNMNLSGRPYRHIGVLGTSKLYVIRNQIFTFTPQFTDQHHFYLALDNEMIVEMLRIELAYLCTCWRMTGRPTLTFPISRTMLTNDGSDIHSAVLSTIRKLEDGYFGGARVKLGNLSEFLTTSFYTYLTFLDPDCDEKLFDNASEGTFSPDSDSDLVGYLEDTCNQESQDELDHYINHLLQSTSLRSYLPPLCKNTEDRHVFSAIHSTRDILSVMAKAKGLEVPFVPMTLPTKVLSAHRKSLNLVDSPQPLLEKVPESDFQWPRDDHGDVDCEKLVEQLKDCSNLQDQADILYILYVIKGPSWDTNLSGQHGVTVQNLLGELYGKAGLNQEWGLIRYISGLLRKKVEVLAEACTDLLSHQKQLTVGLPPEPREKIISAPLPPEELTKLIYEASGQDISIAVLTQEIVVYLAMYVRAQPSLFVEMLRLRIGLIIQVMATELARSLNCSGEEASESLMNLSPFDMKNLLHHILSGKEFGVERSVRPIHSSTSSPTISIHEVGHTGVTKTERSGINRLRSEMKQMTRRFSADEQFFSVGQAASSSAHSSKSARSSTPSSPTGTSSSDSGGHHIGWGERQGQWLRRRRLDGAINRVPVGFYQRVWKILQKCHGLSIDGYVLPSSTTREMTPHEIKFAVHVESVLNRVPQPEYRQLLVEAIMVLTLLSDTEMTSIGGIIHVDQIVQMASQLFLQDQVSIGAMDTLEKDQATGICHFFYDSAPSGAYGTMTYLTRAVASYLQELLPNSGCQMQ
BMP-2-inducible protein kinase (Homo sapiens), sequence (Q9NSY1 whole entry, looked up): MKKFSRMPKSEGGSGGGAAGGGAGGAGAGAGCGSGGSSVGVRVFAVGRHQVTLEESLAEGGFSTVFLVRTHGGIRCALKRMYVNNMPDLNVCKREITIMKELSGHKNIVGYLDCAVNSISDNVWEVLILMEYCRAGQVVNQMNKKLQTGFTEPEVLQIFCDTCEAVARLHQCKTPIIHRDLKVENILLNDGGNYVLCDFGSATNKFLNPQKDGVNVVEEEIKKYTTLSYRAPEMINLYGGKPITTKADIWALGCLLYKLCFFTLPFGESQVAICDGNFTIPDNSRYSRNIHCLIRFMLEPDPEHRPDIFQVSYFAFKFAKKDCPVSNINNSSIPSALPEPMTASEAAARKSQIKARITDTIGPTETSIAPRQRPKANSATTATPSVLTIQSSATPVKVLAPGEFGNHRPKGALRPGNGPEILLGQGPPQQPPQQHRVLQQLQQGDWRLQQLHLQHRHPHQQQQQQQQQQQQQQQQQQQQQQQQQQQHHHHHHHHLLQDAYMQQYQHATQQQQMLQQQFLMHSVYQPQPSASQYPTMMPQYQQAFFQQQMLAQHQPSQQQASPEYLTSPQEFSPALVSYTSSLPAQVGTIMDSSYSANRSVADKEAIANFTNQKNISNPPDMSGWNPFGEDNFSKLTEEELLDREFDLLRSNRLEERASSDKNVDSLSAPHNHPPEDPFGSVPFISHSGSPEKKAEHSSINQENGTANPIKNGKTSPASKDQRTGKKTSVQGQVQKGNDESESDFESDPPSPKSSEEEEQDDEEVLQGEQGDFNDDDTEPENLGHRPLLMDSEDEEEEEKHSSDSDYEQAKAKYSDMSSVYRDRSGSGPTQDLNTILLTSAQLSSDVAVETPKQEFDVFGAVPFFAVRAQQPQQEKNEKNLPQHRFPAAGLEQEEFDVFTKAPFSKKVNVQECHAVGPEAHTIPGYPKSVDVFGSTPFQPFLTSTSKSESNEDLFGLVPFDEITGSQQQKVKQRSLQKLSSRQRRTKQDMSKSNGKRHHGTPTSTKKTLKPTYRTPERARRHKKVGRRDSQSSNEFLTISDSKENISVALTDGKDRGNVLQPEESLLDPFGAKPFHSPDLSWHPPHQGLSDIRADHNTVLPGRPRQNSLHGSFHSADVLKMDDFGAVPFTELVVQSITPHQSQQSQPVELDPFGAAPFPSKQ
Ribosomal protein S6 kinase alpha-6 (Homo sapiens), sequence (Q9UK32 whole entry): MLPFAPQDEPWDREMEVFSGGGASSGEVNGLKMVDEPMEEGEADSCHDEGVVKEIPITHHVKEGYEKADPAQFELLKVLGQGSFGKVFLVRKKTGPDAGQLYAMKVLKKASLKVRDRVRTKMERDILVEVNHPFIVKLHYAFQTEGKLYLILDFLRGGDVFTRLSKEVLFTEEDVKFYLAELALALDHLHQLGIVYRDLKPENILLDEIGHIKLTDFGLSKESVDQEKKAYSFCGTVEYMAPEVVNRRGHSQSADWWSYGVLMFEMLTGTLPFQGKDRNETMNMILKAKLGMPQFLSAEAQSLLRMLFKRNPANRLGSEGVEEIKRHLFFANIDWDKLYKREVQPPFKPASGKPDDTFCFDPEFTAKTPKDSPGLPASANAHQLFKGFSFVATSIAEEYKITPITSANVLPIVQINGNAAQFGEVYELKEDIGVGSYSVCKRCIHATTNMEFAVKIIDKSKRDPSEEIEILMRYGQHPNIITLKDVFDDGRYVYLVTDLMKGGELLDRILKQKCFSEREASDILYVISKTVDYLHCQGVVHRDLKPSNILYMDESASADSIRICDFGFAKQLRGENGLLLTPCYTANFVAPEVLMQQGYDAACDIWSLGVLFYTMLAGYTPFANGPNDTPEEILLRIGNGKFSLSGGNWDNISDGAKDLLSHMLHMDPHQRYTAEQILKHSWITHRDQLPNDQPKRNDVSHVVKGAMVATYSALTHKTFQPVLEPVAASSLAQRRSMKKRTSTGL

CCOc1cn(-c2ccc(F)cc2C)nc1C(=O)Nc1ccc(Oc2ccnc3cc(OC)c(OC)cc23)c(F)c1
% of control [1]: < 10%

CC[C@@H]1C(=O)N(C)c2cnc(Nc3ccc(C(=O)NC4CCN(C)CC4)cc3OC)nc2N1C1CCCC1
% of control [2]: 60% | % of control [3]: 80%

CN(c1ccnc(CNc2nc(Nc3ccc4c(c3)CC(=O)N4)ncc2C(F)(F)F)n1)S(C)(=O)=O [PF-00911705]
% of control [4]: 2.3% | % of control [5]: 4.6%

COc1cc2ncn(-c3cc(OCc4ccccc4C(F)(F)F)c(C(N)=O)s3)c2cc1OC [GW843682X]
% of control [6]: 4.1%
